One experiment has as its target T1, human renin (Homo sapiens, UniProt P00797).
T1 construct: purchased National Institute for Biological Standards, London
T1 sequence (P00797 67-406): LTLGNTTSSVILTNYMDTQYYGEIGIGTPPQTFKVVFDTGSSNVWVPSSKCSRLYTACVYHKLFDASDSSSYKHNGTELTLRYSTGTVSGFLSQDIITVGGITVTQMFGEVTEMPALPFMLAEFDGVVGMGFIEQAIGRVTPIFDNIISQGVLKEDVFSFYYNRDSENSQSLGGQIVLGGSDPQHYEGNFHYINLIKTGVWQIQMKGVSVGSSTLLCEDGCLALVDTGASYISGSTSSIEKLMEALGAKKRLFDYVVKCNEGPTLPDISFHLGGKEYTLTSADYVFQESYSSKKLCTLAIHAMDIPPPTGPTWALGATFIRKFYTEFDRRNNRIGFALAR
The experiment is described as follows: in vitro human renin inhibition test (angiotensin I determined by radioimmunoassay). To be noted: for relative activity of epimers as human renin inhibitor (in words): epimer of Example 9 versus epimer of Example 10. Type of experiment: biochemical. How it is done:
Compounds of Formula I were evaluated as inhibitors of human renin in an in vitro assay, as follows: This human renin inhibition test has been previously described in detail [Papaioannou, et al., Clinical and Experimental Hypertension, A7(9), 1243-1257 (1985)]. Human renin was obtained from the National Institute for Biological Standards, London. In a total volume of 0.25 mL 100 mM Tris-acetate buffer at pH 7.4, 25×10^-6 Goldblatt units of renin, 0.05 mL of plasma from human volunteers taking oral contraceptives, 6.0 mM sodium EDTA, 2.4 mM phenylmethyl sulfonyl fluoride, 1.5 mM 8-hydroxyquinoline, 0.4 mg/mL BSA, and 0.024 mg/mL neomycin sulfate were incubated for two hours at 37° C. in the presence or absence of renin inhibitors. The produced angiotensin I was determined by radioimmunoassay (New England Nuclear kit). Compounds of Formula I to be assayed were solubilized in either ethyl alcohol or DMSO and diluted with 100 mM Tris-acetate buffer at pH 7.4 to the appropriate concentration. The final concentration of organic solvent in the reaction mixture was less than 1%. Control incubations at 37° C. were used to correct for effects of organic solvent on renin activity.

The test system of a further experiment is hog renin. The following applies: after the injection of hog renin into nephrectomized rats; Gross et al, Science, 175, 656 (1971); cited from earlier work.
For another experiment, the system named is pepsin. To be noted: Umezawa et al, J. Antibiot. 23:259-262 (1970); cited from earlier work.
The next experiment relates to cathepsin D. The following applies: Umezawa et al, J. Antibiot. 23:259-262 (1970); cited from earlier work.
The subject of a further experiment is renin. The following applies: Umezawa et al, J. Antibiot. 23:259-262 (1970); cited from earlier work.
The subject of another experiment is acid proteases. To be noted: cited from earlier work.
Where [1] appears, read: in vitro, pH 7.4, 37° C., two hours, human plasma.

Square brackets hold non-standard residues; d marks the D form. Peptide text beside a SMILES is read from it. * marks the point of attachment. Sta = CC(C)C[C@H](N)[C@@H](O)CC(=O)O; Isovaleryl = CC(C)CC(=O)*

For orientation: inhibition means the percentage by which the read-out fell short of the control. A high value points to a response far below the control. As a reminder, the IC50 is the concentration at which inhibition is half-maximal.

Consider `CC(C)C[C@H](O)[C@H](O)[C@H](CC1CCCCC1)NC(=O)[C@@H](C)CNC(=O)[C@H](Cc1ccccc1)OC(=O)N1CCOCC1` [Example 10, O-(N-morpholinocarbonyl)-3-L-phenyllactyl-α-(S)-methyl-β-alaninamide of (2S, 3R, 4S)-2-amino-1-cyclohexyl-3,4-dihydroxy-6-methylheptane], for which the inhibition at 1 µM on human renin (@ 10^-6 M, in vitro, pH 7.4, 37° C., two hours, human plasma) turned out to be 8%. In addition, the “relative activity of epimers as human renin inhibitor (in words)” value at human renin is listed as “less active epimer”.

Take `CC(C)C[C@H](O)[C@H](O)[C@H](CC1CCCCC1)NC(=O)C(C)CNC(=O)[C@H](Cc1ccccc1)OC(=O)N1CCOCC1` (stereo partly drawn) [Example 8, O-(N-morpholinocarbonyl)-3-L-phenyllactyl-D,L-α-methyl-β-alaninamide of (2S, 3R, 4S)-2-amino-1-cyclohexyl-3,4-dihydroxy-6-methylheptane]: the “inhibiting renin (in words)” value at human renin (in vitro) is reported as “capable of inhibiting renin in vitro”. The compound also had an IC50 at human renin (setting [1]) of 280 nM.

For the compound `CC(C)C[C@H](O)[C@H](O)[C@H](CC1CCCCC1)NC(=O)[C@H](C)CNC(=O)[C@H](Cc1ccccc1)OC(=O)N1CCOCC1` [Example 9, O-(N-morpholinocarbonyl)-3-L-phenyllactyl-α-(R)-methyl-β-alaninamide of (2 S, 3R, 4S)-2-amino-1-cyclohexyl-3,4-dihydroxy-6-methylheptane], at human renin, the “relative activity of epimers as human renin inhibitor (in words)” value was “much more active as a human renin inhibitor than the other epimer of Example 10”. On human renin (setting [1]), this compound registered an IC50 of 210 nM.

`CC(C)CC(=O)N[C@H](C(=O)N[C@H](C(=O)N[C@@H](CC(C)C)[C@@H](O)CC(=O)N[C@@H](C)C(=O)N[C@@H](CC(C)C)[C@@H](O)CC(=O)O)C(C)C)C(C)C` [pepstatin] (Isovaleryl-VV[Sta]A[Sta]-OH): the “reduction of blood pressure” value in the experiment on hog renin is on record as “reduce blood pressure in vivo”. Moreover, the “inhibition of pepsin (in words)” value in the experiment on pepsin is “inhibitor of aspartyl proteases such as pepsin”. Also, the “inhibition of cathepsin D (in words)” value with cathepsin D is reported as “inhibitor of aspartyl proteases such as pepsin, cathepsin D”. For the same compound, the “inhibition of renin (in words)” value with renin is “inhibitor of aspartyl proteases such as pepsin, cathepsin D and renin”. Further, the “inhibition of acid proteases in addition to renin (in words)” value with acid proteases is “inhibiting acid proteases in addition to renin”.
